Assay [1] has as its system Malassezia furfur (ATCC 14521). Nature of the assay: Minimum Inhibitory Concentration (MIC) in mDixon agar. Format: cell-based. The following applies: for MIC (ppm of metal ion) Alone: M. furfur, 5 days 30°; for MIC (ppm of metal ion) +0.5 ppm ZPT: metal ion in combination with 0.5 ppm ZPT (sub-MIC); for MIC (ppm of metal ion) +2 ppm ZPT: metal ion in combination with 2 ppm ZPT (sub-MIC); for MIC (ppm of metal ion) +4 ppm ZPT: metal ion in combination with 4 ppm ZPT (sub-MIC).

The subject of assay [2] is Malassezia furfur (ATCC 14521). Briefly: Kill Rate Test (KRT) in mDixon broth. Format: cell-based. The procedure: Experiments were conducted to investigate the efficacy of the composition of the present invention to inhibit the survival, growth, and proliferation of microorganisms in topical compositions. The test microorganism was Malassezia furfur. The Kill Rate Test (KRT) results are indicative of anti-fungal efficacy. Generally, the greater the inhibition of fungal growth in this test, the better the anti-fungal efficacy of the compound(s) tested. A flask containing mDixon broth medium (see Gueho, et al. Antoinie Leeuwenhoek (1996), no. 69, 337–55, which description is incorporated by reference herein) was inoculated with Malassezia furfur. Specific concentrations of active(s) were then added to the flask Samples were then withdrawn from the flask at specified time points, diluted in sterile water, and spread across the surface of a mDixon agar plate. […] The lower the CFU/ml count, the better activity the active(s) have against M. furfur. […] Experimental Procedure • 1. […] For Mg^2+, Ag^+, Mn ^2+, Bi^3+, and Na^+ Step 8 was repeated at the 24 and 48 hour time points.

The mark [3] stands for this setting: Table 2(a), 0.05% metal salt (with 10 ppm ZPT where labelled).
The mark [4] stands for this setting: Table 2(a), 0.5% metal salt (with 10 ppm ZPT where labelled).
Where [5] appears, read: Table 2(b), 0.05% metal salt (with 10 ppm ZPT where labelled).
[6] abbreviates: Table 2(b), 0.5% metal salt (with 10 ppm ZPT where labelled).

Where only a bound is given, the exact number is not on record here.

With `[Zn+2]` [Zinc (2+)], in assay [1], the “MIC (ppm of metal ion) Alone” value was 5000 ppm, the “MIC (ppm of metal ion) +0.5 ppm ZPT” value stood at 500 ppm, the “MIC (ppm of metal ion) +2 ppm ZPT” value is recorded as 50 ppm and the “MIC (ppm of metal ion) +4 ppm ZPT” value worked out at 5 ppm.

Take `O=S(=O)([O-])[O-].[Mn+2]` [MnSO4]: in assay [2] (setting [3]), the “Plate Area Colonized, 0 Hours” value was found to be 3.97E+06 mm2; the “Plate Area Colonized, 24 Hours” value came to 1.97E+07 mm2; the “Plate Area Colonized, 48 Hours” value was determined as 5.91E+06 mm2. For the same molecule, in assay [2] (setting [4]), the “Plate Area Colonized, 0 Hours” value was found to be 3.97E+06 mm2; the “Plate Area Colonized, 24 Hours” value turned out to be 1.16E+05 mm2; the “Plate Area Colonized, 48 Hours” value was found to be 2.35E+02 mm2.

Consider `O=S(=O)([O-])[O-].[Zn+2]` [ZnSO4], for which, in assay [2] (setting [5]), the “Plate Area Colonized, 0 Hours” value is reported as 2.12E+07 mm2; the “Plate Area Colonized, 4 Hours” value came to 8.14E+07 mm2; the “Plate Area Colonized, 24 Hours” value was determined as 7.22E+07 mm2; the “Plate Area Colonized, 48 Hours” value is 3.44E+08 mm2. Also, in assay [2] (setting [6]), the “Plate Area Colonized, 0 Hours” value came out at 2.12E+07 mm2; the “Plate Area Colonized, 4 Hours” value came out at 2.21E+07 mm2; the “Plate Area Colonized, 24 Hours” value is on record as 2.69E+06 mm2; the “Plate Area Colonized, 48 Hours” value was determined as 1.86E+05 mm2.

Regarding `O=S(=O)([O-])[O-].[Na+].[Na+]` [Na2SO4], in assay [2] (setting [3]), the “Plate Area Colonized, 0 Hours” value was determined as 3.97E+06 mm2; the “Plate Area Colonized, 24 Hours” value turned out to be 3.75E+07 mm2; the “Plate Area Colonized, 48 Hours” value is given as 3.42E+06 mm2. In addition, in assay [2] (setting [4]), the “Plate Area Colonized, 0 Hours” value amounted to 3.97E+06 mm2; the “Plate Area Colonized, 24 Hours” value is 1.44E+07 mm2; the “Plate Area Colonized, 48 Hours” value was 2.95E+06 mm2.

For the molecule `O=S(=O)([O-])[O-].[Cu+2]` [CuSO4], in assay [2] (setting [5]), the “Plate Area Colonized, 0 Hours” value is 2.12E+07 mm2; the “Plate Area Colonized, 4 Hours” value is given as 9.49E+07 mm2; the “Plate Area Colonized, 24 Hours” value came out at 1.81E+08 mm2; the “Plate Area Colonized, 48 Hours” value was determined as 3.32E+08 mm2. For the same molecule, in assay [2] (setting [6]), the “Plate Area Colonized, 0 Hours” value is 2.12E+07 mm2; the “Plate Area Colonized, 4 Hours” value was 1.00E+00 mm2; the “Plate Area Colonized, 24 Hours” value is listed as 1.00E+00 mm2; the “Plate Area Colonized, 48 Hours” value stood at 1.00E+00 mm2.

For `[Hg+2]` [Mercury (2+)], in assay [1], the “MIC (ppm of metal ion) Alone” value is 50 ppm and the “MIC (ppm of metal ion) +4 ppm ZPT” value turned out to be 5 ppm.

As for `[Cu+2]` [Copper (2+)], in assay [1], the “MIC (ppm of metal ion) Alone” value is on record as 5000 ppm, the “MIC (ppm of metal ion) +0.5 ppm ZPT” value turned out to be 5000 ppm, the “MIC (ppm of metal ion) +2 ppm ZPT” value was less than 0.5 ppm and the “MIC (ppm of metal ion) +4 ppm ZPT” value was less than 0.005 ppm. Moreover, in assay [1] (listed as copper ions), the “MIC (ppm of metal ion) +4 ppm ZPT” value is given as “less than 0.005 ppm”.

On to `[O-]n1ccccc1=S.[O-]n1ccccc1=S.[Zn+2]` [ZPT, zinc salt of 1-hydroxy-2-pyridinethione, reference compound], for which, in assay [2] (Table 2(a), 10 ppm), the “Plate Area Colonized, 0 Hours” value is recorded as 3.97E+06 mm2; the “Plate Area Colonized, 24 Hours” value is reported as 2.52E+05 mm2; the “Plate Area Colonized, 48 Hours” value was 2.30E+03 mm2. Moreover, in assay [2] (Table 2(b), 10 ppm), the “Plate Area Colonized, 0 Hours” value was found to be 2.12E+07 mm2; the “Plate Area Colonized, 4 Hours” value is 3.49E+07 mm2; the “Plate Area Colonized, 24 Hours” value was determined as 6.44E+06 mm2; the “Plate Area Colonized, 48 Hours” value is on record as 4.86E+05 mm2.

As to `[Cl][Bi]([Cl])[Cl]` [BiCl3], in assay [2] (setting [3]), the “Plate Area Colonized, 0 Hours” value is reported as 3.97E+06 mm2; the “Plate Area Colonized, 24 Hours” value amounted to 1.96E+07 mm2; the “Plate Area Colonized, 48 Hours” value is listed as 3.03E+06 mm2. In assay [2] (setting [4]), the “Plate Area Colonized, 0 Hours” value is 3.97E+06 mm2; the “Plate Area Colonized, 24 Hours” value was 1.11E+06 mm2; the “Plate Area Colonized, 48 Hours” value is given as 3.42E+05 mm2.

Consider `O=S(=O)([O-])[O-].[Mg+2]` [MgSO4], for which, in assay [2] (setting [3]), the “Plate Area Colonized, 0 Hours” value is 3.97E+06 mm2; the “Plate Area Colonized, 24 Hours” value was found to be 4.35E+06 mm2; the “Plate Area Colonized, 48 Hours” value is 9.68E+06 mm2. Further, in assay [2] (setting [4]), the “Plate Area Colonized, 0 Hours” value is reported as 3.97E+06 mm2; the “Plate Area Colonized, 24 Hours” value is on record as 1.81E+07 mm2; the “Plate Area Colonized, 48 Hours” value is listed as 9.50E+06 mm2.

In the case of `O=S(=O)([O-])[O-].[Ag+].[Ag+]` [Ag2SO4], in assay [2] (setting [3]), the “Plate Area Colonized, 0 Hours” value was determined as 3.97E+06 mm2; the “Plate Area Colonized, 24 Hours” value came to 7.46E+05 mm2; the “Plate Area Colonized, 48 Hours” value is listed as 1.22E+05 mm2. In assay [2] (setting [4]), the “Plate Area Colonized, 0 Hours” value is recorded as 3.97E+06 mm2; the “Plate Area Colonized, 24 Hours” value amounted to 1.65E+06 mm2; the “Plate Area Colonized, 48 Hours” value is 1.00E+00 mm2.

(Values after patent publication US7026308B1, “Topical anti-microbial compositions” (The Procter & Gamble Company, priority 1999, dated 2006).)
